Measurements taken from the supplement of paper PMC6045584.
± gives the standard deviation of the averaged measurements.

Experiments:
SORAFENIB = compound: CNC(=O)c1cc(Oc2ccc(NC(=O)Nc3ccc(Cl)c(C(F)(F)F)c3)cc2)ccn1 [SORAFENIB]; experiment: surviving fraction relative to DMSO-only wells; higher = less growth inhibition; conditions: exposure time: 5 days
In short: (§1)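 Five days of continuous inhibitor exposure, at 0.5, 1, 5, 10, 50, 100, 500 and 1000 nM, followed a 24-hour period after log-phase tumour cell lines were seeded at 250–500 cells per well in 384-well plates. Surviving fraction was derived from CellTiter-Glo luminescence relative to the median of DMSO-only wells. Plates were read after 10 minutes at room temperature, and lines screened three times were kept only if replicate Pearson r >0.7 and median Z' >0.3.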

OLAPARIB = compound: O=C(c1cc(Cc2n[nH]c(=O)c3ccccc23)ccc1F)N1CCN(C(=O)C2CC2)CC1 [OLAPARIB]; experiment: as above; conditions: exposure time: 5 days
In short: as §1

Test System	surviving fraction (SORAFENIB; 1 nM)	surviving fraction (SORAFENIB; 5 nM)	surviving fraction (SORAFENIB; 10 nM)	surviving fraction (SORAFENIB; 50 nM)	surviving fraction (SORAFENIB; 100 nM)	surviving fraction (SORAFENIB; 500 nM)	surviving fraction (SORAFENIB; 1000 nM)	surviving fraction (OLAPARIB; 0.5 nM)	surviving fraction (OLAPARIB; 1 nM)	surviving fraction (OLAPARIB; 5 nM)	surviving fraction (OLAPARIB; 10 nM)	surviving fraction (OLAPARIB; 50 nM)	surviving fraction (OLAPARIB; 100 nM)	surviving fraction (OLAPARIB; 500 nM)	surviving fraction (OLAPARIB; 1000 nM)	surviving fraction (SORAFENIB; 0.5 nM)
S68 BREAST	0.963 ± 0.22	1.06 ± 0.083	1.13 ± 0.18	1.29 ± 0.099	1.12 ± 0.27	1.02 ± 0.079	0.895 ± 0.32	0.986 ± 0.17	0.927 ± 0.014	0.925 ± 0.23	0.896 ± 0.16	0.941 ± 0.084	0.771 ± 0.26	0.715 ± 0.15	0.612 ± 0.097	
CHLA90 AUTONOMIC GANGLIA	1.04 ± 0.039		0.996 ± 0.037	1.13 ± 0.037	1.27 ± 0.062	1.38 ± 0.1	1.5 ± 0.12	1.02 ± 0.065	1.07 ± 0.037	1.01 ± 0.035	0.993 ± 0.048	0.95 ± 0.052	1.01 ± 0.078	0.963 ± 0.061	0.966 ± 0.059	0.992 ± 0.05
CASKI CERVIX	0.94 ± 0.054	0.983 ± 0.044	0.969 ± 0.019	1.13 ± 0.077	1.13 ± 0.075	1.05 ± 0.019	0.865 ± 0.045	0.921 ± 0.029	0.947 ± 0.057	0.993 ± 0.051	0.982 ± 0.015	0.859 ± 0.016	0.844 ± 0.026	0.749 ± 0.075	0.765 ± 0.068	0.895 ± 0.04
HT1080 SOFT TISSUE	1.05 ± 0.036	1.04 ± 0.035	1.02 ± 0.014	1.023 ± 0.005	1.01 ± 0.028	1.05 ± 0.09	1.01 ± 0.031	1.02 ± 0.0063	0.977 ± 0.023	0.9903 ± 0.0038	0.965 ± 0.013	0.882 ± 0.037	0.819 ± 0.032	0.7243 ± 0.0055	0.608 ± 0.021	1.04 ± 0.057
KPD BONE		1.03 ± 0.032		0.989 ± 0.075				0.983 ± 0.011	0.946 ± 0.024	0.969 ± 0.024	0.995 ± 0.093	0.959 ± 0.059	0.965 ± 0.022	0.765 ± 0.007	0.711 ± 0.033	0.922 ± 0.019
HCC1954 BREAST		1.02 ± 0.077	0.93 ± 0.27	1.22 ± 0.11	1.29 ± 0.039	1.3 ± 0.1	1.33 ± 0.14	0.84 ± 0.13	0.762 ± 0.033	1.1 ± 0.06	0.969 ± 0.038	0.916 ± 0.092	0.6867 ± 0.0046	0.719 ± 0.013	0.497 ± 0.0021	1.11 ± 0.15
MDAMB468 BREAST		1.15 ± 0.062	1.09 ± 0.072	1.28 ± 0.073	1.26 ± 0.12	1.23 ± 0.029	1.21 ± 0.051	0.928 ± 0.045	0.907 ± 0.026	0.935 ± 0.025	0.942 ± 0.029	0.861 ± 0.031	0.849 ± 0.049	0.835 ± 0.04	0.595 ± 0.047	1 ± 0.083
SNU475 LIVER		1.04 ± 0.03	1.05 ± 0.032			1.17 ± 0.031	1.07 ± 0.042	1 ± 0.079	0.957 ± 0.032	1 ± 0.039	0.994 ± 0.07	0.893 ± 0.059	0.8737 ± 0.0067	0.918 ± 0.013	0.838 ± 0.016	1.08 ± 0.036
VCAP PROSTATE	1.17 ± 0.11	1.19 ± 0.12	1.08 ± 0.053	1.12 ± 0.21		1.13 ± 0.16	1.02 ± 0.062	1.17 ± 0.067	1.1 ± 0.074	1.17 ± 0.089	1.04 ± 0.13	1.08 ± 0.09	1.09 ± 0.12	1.03 ± 0.089	0.922 ± 0.074	1.13 ± 0.17
NOS1 BONE		1.12 ± 0.17	0.997 ± 0.058	0.995 ± 0.053	0.874 ± 0.056	0.684 ± 0.0075	0.613 ± 0.062	1.09 ± 0.13	0.985 ± 0.096	0.981 ± 0.063	0.999 ± 0.079	0.828 ± 0.062	0.773 ± 0.049	0.553 ± 0.065	0.521 ± 0.071	1.04 ± 0.11
H23 LUNG		1.06 ± 0.061	1.06 ± 0.033	1.32 ± 0.095	1.33 ± 0.031	1.38 ± 0.11	1.27 ± 0.073	1.09 ± 0.03	1.07 ± 0.02	1.1 ± 0.022	1.064 ± 0.004	1.22 ± 0.03	1.13 ± 0.041	1.14 ± 0.0042	1.08 ± 0.02	1.01 ± 0.03
SUM44 BREAST	0.99 ± 0.041	1.03 ± 0.051	1.04 ± 0.053	1.12 ± 0.035	1.11 ± 0.044		0.974 ± 0.026	0.903 ± 0.012	0.911 ± 0.059	0.924 ± 0.083	0.909 ± 0.071	0.97 ± 0.068	0.958 ± 0.063	0.894 ± 0.066	0.861 ± 0.022	1.03 ± 0.035
HCT15 LARGE INTESTINE	0.989 ± 0.0099	0.99 ± 0.026	0.982 ± 0.021	1.09 ± 0.052	1.09 ± 0.064		1.06 ± 0.035	1.09 ± 0.06	1.06 ± 0.022	1.01 ± 0.085	1.05 ± 0.065	0.998 ± 0.043	1.04 ± 0.018	0.999 ± 0.055	1.03 ± 0.034	0.955 ± 0.029
HU09 BONE	0.951 ± 0.089	1.01 ± 0.099	0.95 ± 0.072	0.809 ± 0.061	0.675 ± 0.063	0.512 ± 0.016	0.433 ± 0.02	1.01 ± 0.094	0.974 ± 0.031	1.04 ± 0.13	1.13 ± 0.083	0.896 ± 0.063	1.09 ± 0.08	0.851 ± 0.061	0.779 ± 0.096	0.95 ± 0.061
SUM149 BREAST	1.09 ± 0.048				1.17 ± 0.051		1.278 ± 0.0084	0.951 ± 0.21	0.911 ± 0.082	0.927 ± 0.11	0.84 ± 0.01	0.722 ± 0.054	0.624 ± 0.059	0.511 ± 0.084	0.336 ± 0.051	1.18 ± 0.028
A549 LUNG	0.949 ± 0.017	1.01 ± 0.027			1.12 ± 0.043	1.12 ± 0.055	1.04 ± 0.02	1.06 ± 0.036	1.07 ± 0.042	1.06 ± 0.031	1.05 ± 0.035	1.06 ± 0.025	1.04 ± 0.045	1.09 ± 0.021	1.02 ± 0.057	0.994 ± 0.032
LM7 BONE	0.97 ± 0.048		1.01 ± 0.066	1.11 ± 0.14	1.04 ± 0.054		1.05 ± 0.033	1 ± 0.081	0.976 ± 0.058	1.02 ± 0.071	0.963 ± 0.015	0.812 ± 0.042	0.829 ± 0.02	0.614 ± 0.0076	0.554 ± 0.014	0.938 ± 0.057
HCC1395 BREAST		1.27 ± 0.049	1.16 ± 0.17	1.26 ± 0.034	1.24 ± 0.15	1.18 ± 0.21	1.12 ± 0.048	0.85 ± 0.034	0.934 ± 0.12	1.06 ± 0.065	1.03 ± 0.037	0.93 ± 0.11	1.02 ± 0.059	0.787 ± 0.096	0.799 ± 0.17	1.11 ± 0.057
SG31 HEADNECK	1.1 ± 0.11	1.09 ± 0.092	1.08 ± 0.15	1.2 ± 0.31	1.07 ± 0.092	1.4 ± 0.22	1.22 ± 0.13	1.17 ± 0.27	1.09 ± 0.061	1.02 ± 0.12	0.985 ± 0.16	0.932 ± 0.18	0.908 ± 0.13	0.946 ± 0.073	0.962 ± 0.073	1.03 ± 0.11
SKBR3 BREAST	1.07 ± 0.22	0.978 ± 0.087	0.951 ± 0.16	0.96 ± 0.16	0.95 ± 0.1	1.08 ± 0.23	1.1 ± 0.053	1.02 ± 0.1	1.05 ± 0.15	0.939 ± 0.12	1 ± 0.21	0.922 ± 0.14	0.935 ± 0.093	0.79 ± 0.13	0.813 ± 0.072	1.12 ± 0.15
MDAMB361 BREAST	0.862 ± 0.089	0.904 ± 0.029		0.909 ± 0.034	0.837 ± 0.03	0.796 ± 0.049	0.84 ± 0.098	0.82 ± 0.026	0.793 ± 0.076	0.773 ± 0.094	0.767 ± 0.042	0.612 ± 0.064	0.603 ± 0.048	0.577 ± 0.051	0.523 ± 0.036	0.813 ± 0.078
ASKA SYNOVIAL	1.07 ± 0.063	1.18 ± 0.024	1.12 ± 0.028	1.15 ± 0.031	1.15 ± 0.014	1.01 ± 0.023	0.954 ± 0.045	1.16 ± 0.13	1.13 ± 0.043	1.14 ± 0.096	1.06 ± 0.09	0.936 ± 0.051	0.921 ± 0.044	0.772 ± 0.056	0.655 ± 0.071	1.12 ± 0.019
